Laboratory results published in ChEMBL document CHEMBL1201862, “PubChem BioAssay data set” (2004).
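Interpolation was linear, between the two tested concentrations surrounding the appropriate level; five concentrations were tested over 48 hours in 96-well plates. GI50 = concentration required for 50% inhibition of growth.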 Calls of active or inactive are those of the source. No stated cut-off is given here; in the data, active = GI50 up to about 1.1 µM and inactive = higher.

What was measured:
Experiment in all cases: NCI tumour cell line growth inhibition, 48 h
Malme-3M = tested on: Malme-3M
NCI-H460 = tested on: NCI-H460
RXF 393 = tested on: RXF 393
SNB-19 = tested on: SNB-19
HCT-15 = tested on: HCT-15
IGROV-1 = tested on: IGROV-1
A549 = tested on: A549
SW-620 = tested on: SW-620
EKVX = tested on: EKVX
OVCAR-5 = tested on: OVCAR-5
HCT-116 = tested on: HCT-116
UACC-62 = tested on: UACC-62
U-251 = tested on: U-251
SK-MEL-28 = tested on: SK-MEL-28
ACHN = tested on: ACHN
NCI-H226 = tested on: NCI-H226
A498 = tested on: A498

Row | SMILES | GI50 (Malme-3M) | GI50 (NCI-H460) | GI50 (RXF 393) | GI50 (SNB-19) | GI50 (HCT-15) | GI50 (IGROV-1) | GI50 (A549) | GI50 (SW-620) | GI50 (EKVX) | GI50 (OVCAR-5) | GI50 (HCT-116) | GI50 (UACC-62) | GI50 (U-251) | GI50 (SK-MEL-28) | GI50 (ACHN) | GI50 (NCI-H226) | GI50 (A498)
1 | Cc1cc(C)c(-n2c(-c3ccccc3)cs/c2=N\N=C2C=C(C(C)(C)C)C(=O)C(C(C)(C)C)=C2)c(C)c1 | > 100 µM (inactive) | > 100 µM (inactive) | > 100 µM (inactive) | > 100 µM (inactive) | > 100 µM | > 100 µM (inactive) | > 100 µM (inactive) | > 100 µM (inactive) | 91.4 µM (inactive) | > 100 µM (inactive) | 64.6 µM (inactive) | 60.3 µM (inactive) | > 100 µM (inactive) | > 100 µM (inactive) | 90.2 µM (inactive) | > 100 µM (inactive) | –
2 | CC1=CCC23C(C1)OC(Br)(C=CC2(C)O)C3(C)C (centres undefined) | > 100 µM (inactive) | > 100 µM (inactive) | – | – | – | > 100 µM (inactive) | > 100 µM (inactive) | > 100 µM (inactive) | > 100 µM (inactive) | > 100 µM (inactive) | > 100 µM (inactive) | > 100 µM (inactive) | – | > 100 µM (inactive) | > 100 µM (inactive) | > 100 µM (inactive) | > 100 µM (inactive)
3 | N#Cc1c(-c2ccccc2)c(-c2ccccc2)cc2c(=O)c3ccc(Cl)cc3[nH]c12 | > 100 µM (inactive) | > 100 µM (inactive) | > 100 µM (inactive) | > 100 µM (inactive) | > 100 µM | > 100 µM (inactive) | > 100 µM (inactive) | > 100 µM (inactive) | > 100 µM (inactive) | > 100 µM (inactive) | > 100 µM (inactive) | > 100 µM (inactive) | > 100 µM (inactive) | > 100 µM (inactive) | > 100 µM (inactive) | > 100 µM (inactive) | –
4 | CC(=O)OC1CC2CCN3C(=O)c4cc5c(cc4[C@H](C1OC(C)=O)C23)OCO5 (some centres undefined) | > 100 µM (inactive) | > 100 µM (inactive) | > 100 µM (inactive) | > 100 µM (inactive) | > 100 µM | > 100 µM (inactive) | > 100 µM (inactive) | > 100 µM (inactive) | > 100 µM (inactive) | – | > 100 µM (inactive) | > 100 µM (inactive) | > 100 µM (inactive) | > 100 µM (inactive) | > 100 µM (inactive) | > 100 µM (inactive) | –
5 | O=C1CC[C@H](NC(=O)Cc2ccccc2)C(=O)N1 [ANTINEOPLASTON A10] | > 1250 µM (inactive) | > 1250 µM (inactive) | > 1250 µM (inactive) | > 1250 µM (inactive) | > 1250 µM | > 1250 µM (inactive) | > 1250 µM (inactive) | > 1250 µM (inactive) | > 1250 µM (inactive) | > 1250 µM (inactive) | > 1250 µM (inactive) | > 1250 µM (inactive) | > 1250 µM (inactive) | > 1250 µM (inactive) | > 1250 µM (inactive) | > 1250 µM (inactive) | –
6 | COc1ccc(C(=O)C(c2ccc(OCc3ccccc3)cc2)c2ccc(OCc3ccccc3)cc2)cc1 | > 100 µM (inactive) | > 100 µM (inactive) | > 100 µM (inactive) | > 100 µM (inactive) | > 100 µM | > 100 µM (inactive) | > 100 µM (inactive) | > 100 µM (inactive) | > 100 µM (inactive) | > 100 µM (inactive) | > 100 µM (inactive) | > 100 µM (inactive) | > 100 µM (inactive) | > 100 µM (inactive) | > 100 µM (inactive) | > 100 µM (inactive) | –
7 | CC[C@H]1CC(=O)c2c(cc3c(c2O)C(=O)c2ccccc2C3=O)[C@@]1(C#N)C(=O)OC(C)(C)C | 4.92 µM (inactive) | 2.7 µM (inactive) | 5.2 µM (inactive) | 3.79 µM (inactive) | 2.07 µM | 2.4 µM (inactive) | 3.27 µM (inactive) | 3.65 µM (inactive) | 4.94 µM (inactive) | 10.3 µM (inactive) | 2.7 µM (inactive) | 4.35 µM (inactive) | 3.48 µM (inactive) | 5.92 µM (inactive) | 3.31 µM (inactive) | 3.32 µM (inactive) | –
8 | N#Cc1ccc(Cc2ccccn2)cc1Cl | > 100 µM (inactive) | > 100 µM (inactive) | > 100 µM (inactive) | > 100 µM (inactive) | – | > 100 µM (inactive) | > 100 µM (inactive) | > 100 µM (inactive) | > 100 µM (inactive) | > 100 µM (inactive) | – | > 100 µM (inactive) | > 100 µM (inactive) | > 100 µM (inactive) | > 100 µM (inactive) | > 100 µM (inactive) | –
9 | Cc1cc([N+](=O)[O-])c(C)c2c1[nH]c1ccc(O)cc12 | > 100 µM (inactive) | > 100 µM (inactive) | – | > 100 µM (inactive) | 50 µM | – | > 100 µM (inactive) | 63.1 µM (inactive) | > 100 µM (inactive) | > 100 µM (inactive) | > 100 µM (inactive) | – | – | > 100 µM (inactive) | 99.8 µM (inactive) | > 100 µM (inactive) | –
10 | COc1ccc2[nH]cc(CCNC(=O)[C@](O)(Cc3cn(C)c4ccccc34)[C@@]3(O)OCC(O)C3O)c2c1 (some centres undefined) | > 100 µM (inactive) | 77.4 µM (inactive) | > 100 µM (inactive) | > 100 µM (inactive) | > 100 µM | > 100 µM (inactive) | > 100 µM (inactive) | > 100 µM (inactive) | > 100 µM (inactive) | > 100 µM (inactive) | 47.3 µM (inactive) | 58.9 µM (inactive) | > 100 µM (inactive) | > 100 µM (inactive) | > 100 µM (inactive) | > 100 µM (inactive) | –
11 | O=C1[C@@H]2C3c4ccccc4C([C@@H]2C(=O)N1c1ccccc1)S3(=O)=O | > 100 µM (inactive) | 31.1 µM (inactive) | 38.1 µM (inactive) | 48.8 µM (inactive) | > 100 µM | > 100 µM (inactive) | – | 51.4 µM (inactive) | > 100 µM (inactive) | > 100 µM (inactive) | > 100 µM (inactive) | > 100 µM (inactive) | 47.2 µM (inactive) | – | > 100 µM (inactive) | > 100 µM (inactive) | –
12 | Cc1ccc(/N=N/C(C(=O)c2ccccc2)C(=O)c2ccccc2)cc1 | 29.9 µM (inactive) | – | – | 19 µM (inactive) | 14.2 µM | 31.2 µM (inactive) | 27.3 µM (inactive) | 29.1 µM (inactive) | 30.7 µM (inactive) | 22.2 µM (inactive) | 14.9 µM (inactive) | 16.4 µM (inactive) | 18 µM (inactive) | 31.6 µM (inactive) | 26.6 µM (inactive) | 17.6 µM (inactive) | 27.4 µM (inactive)
13 | COc1ccc2c(c1)O[C@@H]1c3ccc(OC)cc3OC[C@H]21 | 39.2 µM (inactive) | 26.2 µM (inactive) | 22.4 µM (inactive) | 54.3 µM (inactive) | 25.8 µM | 37 µM (inactive) | 29.2 µM (inactive) | 20.8 µM (inactive) | – | 45.3 µM (inactive) | 27.7 µM (inactive) | 37.8 µM (inactive) | 24.2 µM (inactive) | 40.5 µM (inactive) | 52.4 µM (inactive) | 21.5 µM (inactive) | –
